From PMC3493512, “Structures of SHV-1 β-Lactamase with Penem and Penam Sulfone Inhibitors That Form Cyclic Intermediates Stabilized by Carbonyl Conjugation” (PLoS ONE, 2012)

Target: T1, SHV-1 β-lactamase (Klebsiella pneumoniae, UniProt P0AD64)
T1 construct: gene bla
Assay: X-ray crystal structure at […] Å (soak); Ki by direct competition kinetics
Format: biochemical

T1 sequence (P0AD64 22-286): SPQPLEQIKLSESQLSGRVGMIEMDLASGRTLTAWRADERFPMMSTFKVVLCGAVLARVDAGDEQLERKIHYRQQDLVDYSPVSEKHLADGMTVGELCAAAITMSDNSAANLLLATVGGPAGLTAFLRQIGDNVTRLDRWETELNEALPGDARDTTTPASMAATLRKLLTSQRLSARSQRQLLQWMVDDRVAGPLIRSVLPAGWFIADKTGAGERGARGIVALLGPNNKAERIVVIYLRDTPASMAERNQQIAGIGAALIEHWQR

In the case of `C[C@]1(COC(=O)Cc2ccccc2)[C@H](C(=O)O)N2C(=O)/C(=C/c3ccccn3)[C@H]2S1(=O)=O` [SA1-204], the Ki is reported as 42 ± 4 nM.
